In one assay the test system is AgKv2 K+ channels. In words: Whole cell patch clamp of AgKv2 K+ channels expressed in HEK293 cells. It is filed as cell-based, Anopheles gambiae. A general note: The patch-clamp technique gives a direct electrical read-out from membranes.
Another assay has as its system potassium channels. As to the kind of experiment: Thallium flux (FluxOR) fluorescence assay of potassium channel function in Sua1B cells. In kind it is cell-based, Anopheles gambiae. On the procedure:
(§1) Differentiation with 20-Hydroxyecdysone. […] Controls had 0.1% DMSO.
Thallium Flux Measurements of Potassium Channel Pharmacology. The FluxOR™ potassium channel assay (Molecular Probes, Inc., Eugene, Oreg., USA) was performed as outlined in the product information sheet and performed on the SyntaxMax plate reader (BioTek, Winooski, Vt., USA).

Assay [1] has as its system Kv2 delayed-rectifier potassium channels (AgKv2). As to the kind of experiment: Whole cell patch clamp of potassium channel currents in Sua1B cells. In kind it is cell-based, Anopheles gambiae.
Description: (§2) Cell Culture. […] Cells were passed every 3-5 days.
as §1

Assay [2] concerns outward potassium currents similar to Kv2 currents. As to the kind of experiment: Patch clamp of potassium currents in Sf21 cells. In kind it is cell-based, lepidopteran. The settings on record: 3 hours treatment. The method, then: (§3) FIGS. 8A-8C. […] Imidacloprid-induced calcium fluorescence is blocked by 100 μM mecamylamine (MML). […] FIG. 8B: Response of a patch clamped Sf21 cell to imidacloprid treatment after 6 hours in 20-HE. […] The current voltage plot was generated by subtracting TEA-insensitive current from total current at each voltage.

Assay [3] has as its system nicotinic acetylcholine receptors. In words: Imidacloprid-induced calcium fluorescence in Sf21 cells. It is filed as cell-based, lepidopteran. The method, then:
as §3
FIG. 9. […] Expression of IMI-induced fluorescence is the same, with even lower vehicle background with caffeine, at least in this particular experiment.

In assay [4] the test system is Kv2 delayed-rectifier K+ channel (AgKv2), native channel current in Sua1B cells. The settings on record: read-out: IC50 (TEA inhibition of K+ current), FIG. 5F, whole cell patch clamp, holding potential −80 mV, steps up to +100 mV, TEA 0.3-30 mM traces, 20-HE added 3 hours before experiments (general method).
Description: as §2
(§4) Differentiation with 20-Hydroxyecdysone.

The subject of assay [5] is Anopheles gambiae Kv2 (AgKv2) channel (Accession # XM_315955.4) expressed in HEK293 cells. The settings on record: read-out: EC50 (TEA inhibition of K+ current); FIG. 6E; HEK293 cells with AgKv2 gene, CMV promoter, tetracycline-induced (w/ TC); whole cell patch clamp, holding potential −80 mV, steps up to +100 mV.
The next assay deals with muscarinic-type receptor. As to the kind of experiment: Calcium fluorescence response to muscarinic agonists in Sua1B cells. In kind it is cell-based, Anopheles gambiae.
Description: as §2, §4

In assay [6] the test system is nicotinic acetylcholine receptors. As to the kind of experiment: Patch clamp of Sf21 cell response to imidacloprid. In kind it is cell-based, lepidopteran. The settings on record: Sf21 cell after 6 hours in 20-HE. On the procedure: as §3
Assay [7] has the same test system. In words: Imidacloprid-induced calcium fluorescence in Sua1B cells. It is filed as cell-based, Anopheles gambiae.

“Also recorded” adds a separate entry of the source. Like-named read-outs stand apart in the source and are kept apart here. Where only a bound is given, the exact number is not on record here.

Turning to `Nc1ccncc1` [4-AP, 4-aminopyridine], the “inhibition of AgKv2 K+ current” value in the assay on AgKv2 K+ channels (HEK293 cells expressing the AgKv2 gene) was “inhibited”. Moreover, the “effect on thallium ion uptake” value in the assay with potassium channels (Sua1B cells induced by 20-HE) is on record as “blocking action”. Besides, the “inhibition of Kv2 (AgKv2) K+ currents” value in [1] (20-HE-treated Sua1B cells) is reported as “inhibited AgKv2 currents”; in assay [1] (20-HE-treated Sua1B cells, listed as 4-aminopyridine), “inhibited”.
Turning to `CC(C)(O)CC[C@@H](O)[C@](C)(O)[C@H]1CC[C@@]2(O)C3=CC(=O)[C@@H]4C[C@@H](O)[C@@H](O)C[C@]4(C)[C@H]3CC[C@]12C` [20-HE, 20-hydroxyecdysone], the “expression of potassium currents” value in assay [2] is “expressing outward potassium currents”. Also, in the assay on potassium channels (Sua1B cells, 42 μM 20-HE, time dependence), the “K+ channel expression (thallium fluorescence)” value was “detectable ion channel expression in hours”. For the same compound, the “Maximal increase of AgKv2 channel expression (current)” value in [1] (20-HE treatment of Sua1B cells) worked out at 2000 pA. The “time after treatment at which Kv2 delayed-rectifier potassium channels are expressed” value in assay [1] (Sua1B cells, whole cell patch clamp) was at most 3 h. Also, the “expression of nicotinic acetylcholine receptors” value in assay [3] (Sf21 cells, 6 hours of exposure) is on record as “enhances expression”.
In general, IC50 refers to the concentration that inhibits the measured activity by half. On to `CC[N+](CC)(CC)CC` [TEA, tetraethylammonium], for which, in the assay on AgKv2 K+ channels, the “inhibition of AgKv2 K+ current” value was “inhibited; also recorded: Inhibition of potassium current”. Moreover, the half-maximal inhibitory concentration (IC50) in assay [4] came to 8000 µM. Also, the “inhibition of Kv2 (AgKv2) K+ currents” value in assay [1] is “inhibited AgKv2 currents; also recorded: Inhibition of K^+ current”. In addition, in assay [5], the EC50 was found to be 1300 µM.
As to `CC(C[N+](C)(C)C)OC(N)=O` (centres unmarked) [bethanechol], the “fold less potent response in the absence of insect hormone” value in the assay with muscarinic-type receptor is around 200 fold. The EC50 was determined as 0.25 µM in the assay on muscarinic-type receptor (read-out: EC50 (concentration where the response is half maximal), calcium fluorescence) and 48 µM in the assay with muscarinic-type receptor (read-out: EC50, calcium fluorescence).
With `Cn1c(=O)c2c(ncn2C)n(C)c1=O` [caffeine], the “expression of imidacloprid sensitivity (IMI-induced fluorescence)” value in [3] (Sf21 cells, 6 hours exposure, 10 μM imidacloprid) is “approximately the same effect as caffeine and 20-HE”.
For `O=[N+]([O-])NC1=NCCN1Cc1ccc(Cl)nc1` [imidacloprid], in assay [6], the “current response of patch clamped cell” value is listed as “inward current”. For the same compound, the “calcium fluorescence versus controls” value was “no imidacloprid effect” in assay [7] (Sua1B cells in the absence of 20-HE) and “increases calcium fluorescence above controls” in assay [7] (Sua1B cells, 3 hours of 20-HE treatment). Also, the “calcium fluorescence compared to matched controls” value in assay [3] (10 μM, Sf21 cells, 6 hours of exposure to 20-HE) is “greater imidacloprid-induced calcium fluorescence”. The calcium fluorescence result in assay [3] (Sf21 cells without 20-HE) is on record as “reduced effect”.
As to `CNC1(C)C2CCC(C2)C1(C)C` (centres unmarked) [mecamylamine], the “block of imidacloprid-increased calcium fluorescence” value in assay [7] (100 μM, Sua1B cells, 3 hours of 20-HE treatment) is on record as “blocked”. Further, the “block of imidacloprid-induced calcium fluorescence” value in [3] (100 μM, Sf21 cells, 6 hours 20-HE) is recorded as “blocked”. The “reduction of imidacloprid-induced calcium fluorescence” value in [3] (Sf21 cells without 20-HE) is “variable and not statistically significant reduction”.
Turning to `NC1=N[C@H](O)[C@H]2[C@H]3O[C@]4(O)O[C@@H]([C@@H](O)[C@@]2(N1)[C@@H]4O)[C@]3(O)CO` [tetrodotoxin], in the assay with potassium channels, the “effect on thallium ion uptake” value is “no effect”.
